Assays:
[1] = system: HT-29 (human colon adenocarcinoma cells); assay: WST-1 proliferation assay (Example 10), HT-29; format: cell-based; settings: WST-1, 48 hours
Method: (§1) Cancer cells used herein were KMS34 (human myeloma cells), HeLa (human cervical cancer cells), HCT116 (human colon cancer cells; p53+/+), KATOIII (human stomach cancer cells), MDA-MB-231 (human breast cancer cells), HT-29 (human colon adenocarcinoma cells), PANC-1 (human pancreatic cancer cells), and Li-7 (human liver cancer cells). Proliferation assay of various cancer cells was performed by the WST-1 method (Cook, J A. & Mitchell, J B., Anal. Biochem., 179, 1-7, 1984) as follows. One μ1 each of PEG11(E)-TC11 and PEG11(O)-TC11 prepared in advance at target concentrations was added into each well of a 96-well microplate. Medium was added to the wells at 50 μl per well, and then mixed by tapping lightly the plate. Subsequently, KMS34 was prepared at a concentration of 5×10^5 cells/ml, and cells other than KMS34 were prepared at a concentration of 2×10^5 cells/ml. Cells were seeded at 50 μl per well (2.5×10^4 cells, 1×10^4 cells), and then incubated in a CO2 incubator (37° C., 5% CO2) for 48 hours. […] Subsequently, the plate was shaken with a plate reader for 1 minute, and then absorbance was measured at 450 nm. At this time, absorbance was also measured at 595 nm as a reference wavelength. The net absorbance was obtained by subtracting the absorbance at the reference wavelength from the absorbance at 450 nm.

[2] = system: PANC-1 (human pancreatic cancer cells); assay: WST-1 proliferation assay (Example 10), PANC-1; format: cell-based; settings: WST-1, 48 hours
Method: as §1

[3] = system: HeLa (human cervical cancer cells); assay: WST-1 proliferation assay (Example 10), HeLa; format: cell-based; settings: WST-1, 48 hours
Method: as §1

[4] = system: high-risk MM cells (KMS34); assay: WST-1 proliferation assay (Example 11), KMS34; format: cell-based, human; settings: WST-1, 48 hours, FIG. 6
Method: Proliferation assay of cancer cells and normal cells was performed using WST-1 as follows. One μ1 each of PEG11(E)-TC11 and TC11 prepared at target concentrations was added to each well of a 96-well microplate. Medium was added to the wells at 50 μl per well, and then mixed by tapping lightly the plate. Next, high-risk MM cells (KMS34) prepared at 5×10^5 cells/ml and bone marrow stromal cell-derived normal cells (WT) prepared at 2×10^5 cells/ml were seeded at 50 μl (2.5×10^4 cells and 1×10^4 cells, respectively) per well, and then incubated in a CO2 incubator (37° C., 5% CO2) for 48 hours. Ten (10) μ1 each of cell proliferation reagent WST-1 (Roche) was added to each well after incubation, and then the resultants were mixed by lightly tapping the plate, followed by 1 hour of reaction in the CO2 incubator. Subsequently, the plate was shaken with a plate reader for 1 minute, and then absorbance was measured at 450 nm. At this time, absorbance was also measured at 595 nm as a reference wavelength. The net absorbance was obtained by subtracting the absorbance at the reference wavelength from the absorbance at 450 nm.

[5] = system: Li-7 (human liver cancer cells); assay: WST-1 proliferation assay (Example 10), Li-7; format: cell-based; settings: U-7 (head of Table 4), WST-1, 48 hours
Method: as §1

[6] = Stability in mouse blood after intraperitoneal administration (HPLC); format: in vivo, ICR mice; settings: for Residual drug within the abdominal cavity: after intraperitoneal administration to mice; for Stability in mouse blood: i.p., equimolar to 20 mg/kg BW TC11, HPLC peaks 0.5-1.5 hours after administration
Method: First, PEG11(E)-TC11(A) and PEG11(O)-TC11(B) were examined for stability in mouse blood. To 5-week-old male ICR mice (CLEA Japan, Tokyo, Japan), PEG11(E)-TC11 and PEG11(O)-TC11 were administered intraperitoneally at 59.1 mg/kg BW and 54.6 mg/kg BW, respectively, in such a manner that each molar concentration was equivalent to that of 20 mg/kg BW of TC11. At 0, 0.5, 1, 1.5, 4, 8, 12, and 24 hours later, a tail vein was punctured with a 26G needle for bleeding, and then about 100 μL of blood was collected using a heparinized hematocrit capillary tube (Terumo, Tokyo, Japan). After blood collection, blood was transferred into a 0.5-mL tube, and then subjected to centrifugation at 4° C. and 3,400 G for 15 minutes. Subsequently, the supernatant was collected, and then cryopreserved at −80° C. A quality control serum, Consera (registered trademark) (Nissui pharmaceutical, Tokyo, Japan) was dissolved in 3 mL of distilled water (dH2O) per bottle. After left to stand for 30 minutes, bottles were turned upside-down (mixing by inversion) and then used. Consera (190 μL) was mixed with the collected blood plasma and 10 μL of urine, thereby preparing samples. Moreover, PEG11(E)-TC11 and HOEtO-TC11 were each diluted with dH2O in such a manner that the concentrations were 0, 2, 4, 6, 8, and 10 μM, and then 10 μL of the solution at each concentration and 190 μL of Consera were mixed, thereby preparing a calibration curve sample. Sep-Pak (registered trademark) C18 solid phase extraction cartridge (Waters Associates, Massachusetts, USA) was washed with 2 mL of 100% CH3CN, and then equilibrated with 4 mL of dH2O. Each sample and a sample for preparing a calibration curve were added to the cartridge, and then rinsed with 200 μL of dH2O. Subsequently, the resultant was washed with 2 mL of dH2O, 2 mL of 40% CH3CN, and 250 μL of 100% CH3CN, and then eluted with 1 mL of 100% CH3CN. The eluate was evaporated under vacuum using a centrifugal evaporator CVE-2000 (TOKYO […] CO, LTD, Tokyo, Japan), re-dissolution was performed with 100 μL of 100% EtOH, and then filtration was performed using a chromatodisc having a pore size of 0.45 μm (GL sciences, Tokyo, Japan). The high performance liquid chromatography (High Performance Liquid Chromatography; HPLC) apparatuses used herein are the following apparatuses manufactured by JASCO (Tokyo, Japan).
HPLC analysis was conducted using Inertsil (registered trademark) ODS-3 […]×Φ4.6 mm as a stationary phase, CH3CN:dH2O=50:50 as a mobile phase, a flow rate of 0.70 mL/min, a UV detection wavelength of 267 nm, and an excitation wavelength of 380 nm, a fluorescence wavelength of 530 nm, and an injection amount of 10 μL at a column temperature of 25° C.

[7] = system: KATOIII (human stomach cancer cells); assay: WST-1 proliferation assay (Example 10), KATOIII; format: cell-based; settings: KATO III, WST-1, 48 hours
Method: as §1

[8] = system: KMS34 (human myeloma cells); assay: WST-1 proliferation assay (Example 10), KMS34; format: cell-based; settings: KMS-34, WST-1, 48 hours
Method: Cancer cells used herein were KMS34 (human myeloma cells), HeLa (human cervical cancer cells), HCT116 (human colon cancer cells; p53+/+), KATOIII (human stomach cancer cells), MDA-MB-231 (human breast cancer cells), HT-29 (human colon adenocarcinoma cells), PANC-1 (human pancreatic cancer cells), and Li-7 (human liver cancer cells). Proliferation assay of various cancer cells was performed by the WST-1 method (Cook, J A. & Mitchell, J B., Anal. Biochem., 179, 1-7, 1984) as follows. One μ1 each of PEG11(E)-TC11 and PEG11(O)-TC11 prepared in advance at target concentrations was added into each well of a 96-well microplate. Medium was added to the wells at 50 μl per well, and then mixed by tapping lightly the plate. Subsequently, KMS34 was prepared at a concentration of 5×10^5 cells/ml, and cells other than KMS34 were prepared at a concentration of 2×10^5 cells/ml. Cells were seeded at 50 μl per well (2.5×10^4 cells, 1×10^4 cells), and then incubated in a CO2 incubator (37° C., 5% CO2) for 48 hours. Ten μ1 each of cell proliferation reagent WST-1 (Roche) was added to each well after incubation, and then the resultants were mixed by lightly tapping the plate, followed by 1 hour of reaction in the CO2 incubator. Subsequently, the plate was shaken with a plate reader for 1 minute, and then absorbance was measured at 450 nm. At this time, absorbance was also measured at 595 nm as a reference wavelength. The net absorbance was obtained by subtracting the absorbance at the reference wavelength from the absorbance at 450 nm.

[9] = system: HCT116 (human colon cancer cells; p53+/+); assay: WST-1 proliferation assay (Example 10), HCT116; format: cell-based; settings: HCT-116, WST-1, 48 hours
Method: as §1

IC50 [1] [µM] | IC50 [2] [µM] | IC50 [3] [µM] | IC50 [5] [µM] | Residual drug within the abdominal cavity [6] | IC50 [7] [µM] | IC50 [8] [nM] | IC50 [9] [µM] | Compound | Proliferation inhibitory activity against high-risk MM cells (KMS34) [4] | Stability in mouse blood [6]
20.5 | 14 | 5.4 | 9.4 | no residual drug was observed | 7.9 | 670 | 9 | COCCOCCOCCOCCOCCOCCOCCOCCOCCOCCOCCOCCC(=O)OCCOc1cc2c(cc1N)C(=O)N(c1c(C(C)C)cccc1C(C)C)C2=O [PEG11(E)-TC11] | significant proliferation inhibitory activity | quickly hydrolyzed with esterase in blood, and converted to HOEtO-TC11
11.4 | 75 | 18.1 | 87 | no residual drug was observed | 21 | 16000 | 34.5 | COCCOCCOCCOCCOCCOCCOCCOCCOCCOCCOCCOCCOc1cc2c(cc1N)C(=O)N(c1c(C(C)C)cccc1C(C)C)C2=O [PEG11(O)-TC11] | – | not degraded with esterase in blood
– | – | – | – | – | – | 2600 | – | CC(C)c1cccc(C(C)C)c1N1C(=O)c2ccc(N)cc2C1=O [TC11, 2-(2,6-di-isopropylphenyl)-5-amino-1H-isoindole-1,3-dione, reference compound] | significant proliferation inhibitory activity | –
